For one experiment, the target named is TBK1 (Homo sapiens, UniProt Q9UHD2). Nature of the experiment: Kinase inhibition panel. The format is biochemical. As to conditions: 10 μM ATP.
Another experiment concerns the target TAOK1 (Homo sapiens, UniProt Q7L7X3). In words: Kinase inhibition panel. The format is biochemical. The settings on record: 10 μM ATP.
A further experiment has as its target NLK (Homo sapiens, UniProt Q9UBE8). In words: Kinase inhibition panel. As to conditions: 10 μM ATP. The format is biochemical.
Another experiment concerns the target c-Kit (Homo sapiens, UniProt P10721). In words: Kinase inhibition panel. The format is biochemical. The settings on record: 10 μM ATP.
The target of the next experiment is FGR (Homo sapiens, UniProt P09769). In words: Kinase inhibition panel. The format is biochemical. As to conditions: 10 μM ATP.
The next experiment deals with CDK6/cyclinD3 (Homo sapiens, UniProt Q00534). In words: Kinase inhibition panel. The format is biochemical. As to conditions: 10 μM ATP.
Another experiment deals with FRK/PTK5 (Homo sapiens, UniProt P42685). In words: Kinase inhibition panel. As to conditions: 10 μM ATP. The format is biochemical.
A further experiment concerns the target EphB2/HEK5 (Homo sapiens, UniProt P29323). In words: Kinase inhibition panel. The format is biochemical. The settings on record: 10 μM ATP.
In another experiment the target is PDGFRb (Homo sapiens, UniProt P09619). In words: Kinase inhibition panel. The format is biochemical. The settings on record: 10 μM ATP.
The next experiment has as its target CDK9/cyclinT1 (Homo sapiens, UniProt P50750). Nature of the experiment: Kinase inhibition panel. The format is biochemical. As to conditions: 10 μM ATP.
The next experiment addresses TTK (Homo sapiens, UniProt P33981). Nature of the experiment: Kinase inhibition panel. The format is biochemical. As to conditions: 10 μM ATP.
In the next experiment the target is FYN (Homo sapiens, UniProt P06241). In words: Kinase inhibition panel. The settings on record: 10 μM ATP. The format is biochemical.
The next experiment relates to MDA-MB-468. In words: Cytotoxicity assay, viable cell count. The format is cell-based. The settings on record: Homo sapiens, MDA-MB-468, 96 h. The protocol:
(§1) Cells (1×10^5) were plated into 6-well dishes and 24 h later 8-cyclopentyl-2-((4-(4-methylpiperazin-1-yl)phenyl)amino)-7-oxo-7,8-dihydropyrido[2,3-d]pyrimidine-6-carbonitrile (12) was added at five different concentrations over a 2 log dilution (1-100 μM). The total number of viable cells was determined after 96 h of continuous treatment by staining with trypan blue and counting the number of non-staining cells (viable) remaining in each well using a hemacytometer. The percentage of viable cells remaining was calculated as follows: # viable cells (compound treated)/# viable cells (DMSO treated)*100.

In the next experiment the test system is GRANTA-519. Nature of the experiment: Cytotoxicity assay, viable cell count. The format is cell-based. As to conditions: Homo sapiens; GRANTA-519, MCL; 96 h continuous treatment, trypan blue. Here is the method:
as §1

Another experiment concerns RAJI. In words: Cytotoxicity assay, viable cell count. The format is cell-based. The settings on record: Homo sapiens, B-Cell Lymphoma, 96 h continuous treatment, trypan blue. Here is the method: as §1
The test system of the next experiment is MCF-7. In words: Cytotoxicity assay, viable cell count. The format is cell-based. As to conditions: Homo sapiens, MCF7; MCF-7, ER + Breast; 96 h continuous treatment, trypan blue. The protocol: as §1
The next experiment deals with N417. Nature of the experiment: Cytotoxicity assay, viable cell count. The format is cell-based. As to conditions: N417, SCLC; 96 h continuous treatment, trypan blue. The protocol: as §1
A further experiment deals with SNU-5. Nature of the experiment: Cytotoxicity assay, viable cell count. The format is cell-based. As to conditions: Homo sapiens; SNU-5, Gastric; 96 h continuous treatment, trypan blue. The protocol:
as §1

A further experiment deals with YES/YES1 (Homo sapiens, UniProt P07947). In words: Kinase inhibition panel. As to conditions: 10 μM ATP. The format is biochemical.
A further experiment deals with FGFR4 (Homo sapiens, UniProt P22455). Nature of the experiment: Kinase inhibition panel. The format is biochemical. As to conditions: 10 μM ATP.

The source of these data is patent US8987267B2, “2-substituted-8-alkyl-7-OXO-7,8-dihydropyrido[2,3-D]pyrimidine-6-carbonitriles and uses thereof in treating proliferative disorders” (Temple University—of the Commonwealth System of Higher …, priority 2010, dated 2015).

FGR, sequence (P09769 whole entry, species assumed): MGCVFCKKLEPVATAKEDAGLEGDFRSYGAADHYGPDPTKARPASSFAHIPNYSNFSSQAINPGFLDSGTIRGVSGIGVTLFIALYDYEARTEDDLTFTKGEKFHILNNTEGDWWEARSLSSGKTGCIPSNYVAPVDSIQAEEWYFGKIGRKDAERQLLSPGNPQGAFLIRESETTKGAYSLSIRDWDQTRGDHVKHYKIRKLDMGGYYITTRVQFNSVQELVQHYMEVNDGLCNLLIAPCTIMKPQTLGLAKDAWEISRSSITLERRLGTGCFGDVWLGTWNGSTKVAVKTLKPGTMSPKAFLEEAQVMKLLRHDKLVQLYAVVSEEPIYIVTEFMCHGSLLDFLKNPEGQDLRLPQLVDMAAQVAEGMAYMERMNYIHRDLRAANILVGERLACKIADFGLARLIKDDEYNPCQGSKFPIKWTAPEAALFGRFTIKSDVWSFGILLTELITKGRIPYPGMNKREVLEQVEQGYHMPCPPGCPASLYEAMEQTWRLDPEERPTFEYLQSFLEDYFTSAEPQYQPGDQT
NLK, sequence (Q9UBE8 whole entry): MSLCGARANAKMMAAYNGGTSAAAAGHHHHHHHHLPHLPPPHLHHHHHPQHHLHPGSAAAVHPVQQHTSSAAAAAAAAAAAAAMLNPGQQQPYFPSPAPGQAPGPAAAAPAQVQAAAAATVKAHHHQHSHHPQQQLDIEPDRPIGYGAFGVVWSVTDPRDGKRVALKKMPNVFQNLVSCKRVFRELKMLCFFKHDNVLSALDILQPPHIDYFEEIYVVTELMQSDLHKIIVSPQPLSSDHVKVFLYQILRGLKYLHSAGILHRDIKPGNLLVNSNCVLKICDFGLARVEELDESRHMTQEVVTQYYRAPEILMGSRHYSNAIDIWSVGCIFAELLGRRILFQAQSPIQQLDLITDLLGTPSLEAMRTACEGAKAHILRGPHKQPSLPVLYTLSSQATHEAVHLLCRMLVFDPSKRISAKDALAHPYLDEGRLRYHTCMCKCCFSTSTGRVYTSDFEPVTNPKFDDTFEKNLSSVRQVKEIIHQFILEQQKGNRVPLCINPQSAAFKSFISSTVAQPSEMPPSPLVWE
EphB2/HEK5, sequence (P29323 19-1055): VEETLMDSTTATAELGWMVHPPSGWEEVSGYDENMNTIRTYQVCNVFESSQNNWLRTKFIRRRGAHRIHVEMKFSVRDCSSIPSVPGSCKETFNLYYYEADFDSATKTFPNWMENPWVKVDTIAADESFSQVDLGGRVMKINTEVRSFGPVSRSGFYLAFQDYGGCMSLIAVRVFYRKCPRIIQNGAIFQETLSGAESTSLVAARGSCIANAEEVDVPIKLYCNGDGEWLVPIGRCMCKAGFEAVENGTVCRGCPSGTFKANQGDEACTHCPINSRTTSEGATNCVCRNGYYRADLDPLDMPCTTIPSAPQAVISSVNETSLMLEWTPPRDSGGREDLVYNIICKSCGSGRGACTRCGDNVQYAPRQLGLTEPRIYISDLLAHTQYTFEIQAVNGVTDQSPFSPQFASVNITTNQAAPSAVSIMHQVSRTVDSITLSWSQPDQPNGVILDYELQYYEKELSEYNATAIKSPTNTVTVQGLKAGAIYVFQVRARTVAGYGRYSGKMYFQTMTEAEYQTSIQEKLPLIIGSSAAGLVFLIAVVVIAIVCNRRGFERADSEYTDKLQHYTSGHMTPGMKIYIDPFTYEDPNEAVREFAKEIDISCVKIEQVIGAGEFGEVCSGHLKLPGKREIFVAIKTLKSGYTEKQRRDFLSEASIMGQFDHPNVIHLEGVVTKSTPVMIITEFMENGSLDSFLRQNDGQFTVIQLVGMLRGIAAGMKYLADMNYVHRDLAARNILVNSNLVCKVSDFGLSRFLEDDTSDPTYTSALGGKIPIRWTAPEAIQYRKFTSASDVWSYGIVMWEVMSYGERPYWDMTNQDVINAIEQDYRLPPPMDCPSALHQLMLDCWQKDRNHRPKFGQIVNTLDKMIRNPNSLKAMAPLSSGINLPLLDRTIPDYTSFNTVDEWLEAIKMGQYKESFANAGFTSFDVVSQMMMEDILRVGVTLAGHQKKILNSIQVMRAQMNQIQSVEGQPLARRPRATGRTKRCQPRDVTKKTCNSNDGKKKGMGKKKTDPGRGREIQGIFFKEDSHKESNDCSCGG
FRK/PTK5, sequence (P42685 whole entry): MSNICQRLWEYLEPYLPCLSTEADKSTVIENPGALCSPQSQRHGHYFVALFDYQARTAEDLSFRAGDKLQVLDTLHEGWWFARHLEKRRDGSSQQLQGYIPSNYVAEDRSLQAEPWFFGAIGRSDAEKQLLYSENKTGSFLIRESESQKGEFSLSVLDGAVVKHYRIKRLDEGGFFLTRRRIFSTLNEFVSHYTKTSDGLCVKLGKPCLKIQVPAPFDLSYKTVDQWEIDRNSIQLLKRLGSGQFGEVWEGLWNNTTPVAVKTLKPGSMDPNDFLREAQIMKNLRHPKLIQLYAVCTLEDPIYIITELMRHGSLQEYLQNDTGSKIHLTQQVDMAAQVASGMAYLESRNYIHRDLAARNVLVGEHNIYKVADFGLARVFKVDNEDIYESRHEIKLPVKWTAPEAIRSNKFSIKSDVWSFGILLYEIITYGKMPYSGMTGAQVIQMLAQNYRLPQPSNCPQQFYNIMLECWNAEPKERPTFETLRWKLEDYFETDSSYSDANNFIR
TTK, sequence (P33981 whole entry, species assumed): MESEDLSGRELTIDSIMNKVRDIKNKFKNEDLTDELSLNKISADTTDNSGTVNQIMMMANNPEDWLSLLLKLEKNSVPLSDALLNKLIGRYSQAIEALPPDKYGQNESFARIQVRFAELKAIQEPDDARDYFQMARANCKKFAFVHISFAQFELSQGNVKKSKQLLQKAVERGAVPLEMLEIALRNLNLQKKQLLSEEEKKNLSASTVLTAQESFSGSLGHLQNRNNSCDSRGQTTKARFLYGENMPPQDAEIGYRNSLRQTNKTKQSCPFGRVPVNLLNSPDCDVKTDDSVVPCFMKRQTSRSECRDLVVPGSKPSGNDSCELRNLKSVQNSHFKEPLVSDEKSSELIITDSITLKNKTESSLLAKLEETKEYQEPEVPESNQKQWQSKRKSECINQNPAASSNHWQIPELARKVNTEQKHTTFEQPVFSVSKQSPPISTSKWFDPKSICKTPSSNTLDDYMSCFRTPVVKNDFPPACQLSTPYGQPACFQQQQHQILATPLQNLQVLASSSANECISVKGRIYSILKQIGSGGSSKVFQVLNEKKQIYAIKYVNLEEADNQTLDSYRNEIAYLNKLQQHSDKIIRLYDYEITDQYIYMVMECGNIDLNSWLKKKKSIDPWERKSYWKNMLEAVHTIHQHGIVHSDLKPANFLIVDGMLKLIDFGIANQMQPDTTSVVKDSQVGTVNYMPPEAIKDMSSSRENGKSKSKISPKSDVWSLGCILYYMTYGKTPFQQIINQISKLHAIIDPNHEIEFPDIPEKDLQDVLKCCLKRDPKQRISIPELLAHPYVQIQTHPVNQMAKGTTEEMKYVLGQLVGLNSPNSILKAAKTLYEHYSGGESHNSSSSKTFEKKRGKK
FYN, sequence (P06241 whole entry, species assumed): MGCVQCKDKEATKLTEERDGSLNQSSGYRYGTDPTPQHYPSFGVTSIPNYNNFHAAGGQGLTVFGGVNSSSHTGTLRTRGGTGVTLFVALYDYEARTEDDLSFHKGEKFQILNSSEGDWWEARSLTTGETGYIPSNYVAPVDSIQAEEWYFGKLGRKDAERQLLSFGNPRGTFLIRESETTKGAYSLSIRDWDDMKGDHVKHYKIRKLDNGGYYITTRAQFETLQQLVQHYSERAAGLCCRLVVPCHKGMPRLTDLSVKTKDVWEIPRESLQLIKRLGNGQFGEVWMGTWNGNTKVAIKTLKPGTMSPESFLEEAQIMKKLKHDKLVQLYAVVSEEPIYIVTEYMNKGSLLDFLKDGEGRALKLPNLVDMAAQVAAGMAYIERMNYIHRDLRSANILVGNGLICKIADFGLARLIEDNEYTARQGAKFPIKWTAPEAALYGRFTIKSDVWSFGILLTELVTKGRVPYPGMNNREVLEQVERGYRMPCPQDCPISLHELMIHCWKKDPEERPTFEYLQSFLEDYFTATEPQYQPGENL
FGFR4, sequence (P22455 22-802, species assumed): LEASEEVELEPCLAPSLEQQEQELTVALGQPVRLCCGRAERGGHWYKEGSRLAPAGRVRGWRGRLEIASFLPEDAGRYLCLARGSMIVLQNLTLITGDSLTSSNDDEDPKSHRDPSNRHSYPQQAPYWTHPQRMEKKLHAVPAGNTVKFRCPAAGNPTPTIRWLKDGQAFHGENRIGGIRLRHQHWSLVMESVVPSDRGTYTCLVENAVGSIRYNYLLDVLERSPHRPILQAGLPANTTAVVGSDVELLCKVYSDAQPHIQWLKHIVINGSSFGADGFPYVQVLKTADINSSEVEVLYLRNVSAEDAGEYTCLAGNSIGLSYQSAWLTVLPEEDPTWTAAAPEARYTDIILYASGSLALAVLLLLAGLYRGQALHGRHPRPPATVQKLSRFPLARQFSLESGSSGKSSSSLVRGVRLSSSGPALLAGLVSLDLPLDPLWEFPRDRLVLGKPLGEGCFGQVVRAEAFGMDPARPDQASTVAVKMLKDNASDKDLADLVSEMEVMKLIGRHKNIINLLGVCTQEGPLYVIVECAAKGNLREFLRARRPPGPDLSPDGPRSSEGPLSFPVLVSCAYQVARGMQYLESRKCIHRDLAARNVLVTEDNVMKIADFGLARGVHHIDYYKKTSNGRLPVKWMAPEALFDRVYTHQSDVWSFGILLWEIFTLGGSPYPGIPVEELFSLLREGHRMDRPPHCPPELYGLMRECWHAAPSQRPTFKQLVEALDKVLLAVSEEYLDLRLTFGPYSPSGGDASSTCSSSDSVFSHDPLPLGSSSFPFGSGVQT

For the compound `CN1CCN(c2ccc(Nc3ncc4cc(C#N)c(=O)n(C5CCCC5)c4n3)cc2)CC1` [Compound 12, 8-cyclopentyl-2-((4-(4-methylpiperazin-1-yl)phenyl)amino)-7-oxo-7,8-dihydropyrido[2,3-d]pyrimidine-6-carbonitrile], the IC50 on TBK1 was determined as 71.8 nM; on TAOK1, 78.7 nM; on NLK, 45.3 nM; on c-Kit, 408 nM; against FGR, 112 nM; at CDK6/cyclinD3 it was 38.7 nM. The IC50 against FRK/PTK5 was found to be 575 nM; against EphB2/HEK5, 130 nM; against PDGFRb, 2.64 nM; on CDK9/cyclinT1 it was 85.4 nM; against TTK it was 156 nM; on FYN, 26.6 nM. Further, the half-inhibitory concentration (IC50) amounted to 38.1 nM on YES/YES1 and 3.55 µM at FGFR4. The GI50 with MDA-MB-468 turned out to be 1500 nM; in the experiment with GRANTA-519, 75 nM; in the experiment with RAJI it was 250 nM; in the experiment on MCF-7 it was 150 nM; in the experiment on N417 it was 250 nM; in the experiment with SNU-5, 200 nM.
